Assay results taken from patent US20250090557A1 (priority 2020, published 2025).
Read-outs that look alike come from different tables or passages of the source.

Columns and labels:
IL-6 [1] = assay type: cell-based, African green monkey
SARS-CoV-2 [2] = experiment: SARS-CoV-2 infection of air-liquid interface human airway epithelium cultures (flow cytometry); assay type: cell-based; conditions: 100 nM, 72 h
Nrf2 = Nrf2 protein levels in Calu3 cells (flow cytometry); assay type: cell-based, human; conditions: infected and uninfected Calu3, pretreatment, data not shown
[3] = Toxicity and mutagenicity in mice; conditions: mouse, in vivo
IL-1β = assay type: cell-based, human; conditions: infected Calu3 supernatants
Keap1 = Keap1 protein levels in Calu3 cells (flow cytometry); assay type: cell-based, human; conditions: infected and uninfected Calu3, pretreatment, data not shown
[4] = test system: ACE2, CD147, NRP1 and TMPRSS2; experiment: Host entry factor protein levels in Calu3 cells (flow cytometry); assay type: cell-based, human; conditions: Calu3, compared to uninfected cells, data not shown
[5] = mice, tissues including liver and kidney, ≥10 days oral supplementation; cited from earlier work
MAVS = MAVS protein levels in Calu3 cells (flow cytometry); assay type: cell-based, human; conditions: total and SARS-CoV-2 infected Calu3 cells, data not shown
IFN-β and IFN-λ = assay type: cell-based, human
SARS-CoV-2 [6] = assay type: cell-based
cleaved caspase 3 = assay type: cell-based, human
IL-6 [7] = assay type: cell-based, human
TOM70 = TOM70 protein levels in Calu3 cells (flow cytometry, immunofluorescence); assay type: cell-based, human
SARS-CoV-2 [8] = assay type: cell-based; remark: listed apart in the source

Compound: COC1=C(OC)C(=O)C(CCCCCCCCCC[P+](c2ccccc2)(c2ccccc2)c2ccccc2)=C(C)C1=O.CS(=O)(=O)[O-] [Mito-MES, 10-(4,5-dimethoxy-2-methyl-3,6-dioxo-1,4-cyclohexadienyl) decyl triphenylphosphonium methanesulfonate]
- secretion of IL-6 resulting from SARS-CoV-2 infection (ELISA) (IL-6 [1]): attenuated the increase in secretion of IL-6
- percent of SARS-CoV-2 infected FOXJ1+ ciliated epithelial cells (flow cytometry) (SARS-CoV-2 [2]; ALI HAE cultures): significantly reduced the percent of SARS-CoV-2 infected human FOXJ1^+ ciliated epithelial cells
- percent of SARS-CoV-2 infected human lung epithelial cells (flow cytometry) (SARS-CoV-2 [2]; primary HAE ALI cultures): significantly reduced the percent of SARS-CoV-2 infected human lung epithelial cells
- protein levels of Nrf2 (Nrf2): did not impact protein levels of Nrf2
- human equivalent dose relative to the doses administered to A1 and A2 (20 mg/day) [3]: about 60 fold
- secretion of IL-1β (Luminex) (IL-1β): tended (p=0.09) to reduce the secretion of IL-IP
- protein levels of Keap (Keap1): reduced protein levels of Keap
- protein levels of ACE2, TMPRSS2, NRP1 and CD147 [4]: Neither SARS-CoV-2 infection nor Mito-MES significantly modulates
- accumulation in tissues [5]: 50 to 700 pmol/g (wet weight)
- MAVS protein levels (MAVS): did not modulate MAVS protein levels
- total cellular IFN-β and IFN-λ protein levels (ELISA, lysates) (IFN-β and IFN-λ; infected Calu3, 100-1000 nM): independently confirmed
- secretion of IFN-β and IFN-λ (ELISA, supernatants) (IFN-β and IFN-λ; infected Calu3, 48 h post infection, 100-1000 nM): did not
- antiviral activity by immunofluorescence (spike S protein) (SARS-CoV-2 [6]): modest antiviral activity
- viral genomic RNA in cell lysates (qPCR) (SARS-CoV-2 [6]; Vero cells): confirmed by qPCR
- percent of infected cells positive for N protein and Spike S protein (flow cytometry) (SARS-CoV-2 [6]; Vero cells, viable single cells): reduced the percent of infected cells
- antiviral activity relative to positive control remdesivir (TCID50) (SARS-CoV-2 [6]; Vero cells, vs 5 μM remdesivir): modest compared to 5 μM remdesivir
- percent of infected cells positive for cleaved caspase 3 and MFI per cell (flow cytometry) (cleaved caspase 3; Calu3, 100 nM): inhibits or reduces SARS-CoV-2-induced increase
- SARS-CoV-2-induced cleavage of caspase 3 (immunofluorescence) (cleaved caspase 3; Calu3, 10-1000 nM): reduced by Mito-MES treatment
- secretion of IL-6 resulting from SARS-CoV-2 infection (ELISA) (IL-6 [7]): attenuated the increase in secretion of IL-6
- TOM70 protein levels (flow cytometry) (TOM70): increased TOM70 protein levels
- TOM70 protein levels (immunofluorescence) (TOM70): dose-dependent increase in TOM70 protein levels
- concentration at which potent antiviral activity is exhibited (immunofluorescence and PCR) (SARS-CoV-2 [8]; Calu3): ≤ 10 nM
- viral titers vs vehicle control (TCID50) (SARS-CoV-2 [8]; Calu3, 10 nM Mito-MES alone): reduced viral titers
- reduction of release of progeny virus (TCID50 of cell supernatants) (SARS-CoV-2 [8]; Calu3, 100 nM and 1000 nM): > 2 logs
